Values quoted from earlier work, collected in patent US20040053283A1, “Gene 4” (priority 2000, published 2004).

Key:
[1] = system: tissue culture model of cerebral ischemia
[2] = system: rat stroke model (middle ear cerebral artery occlusion); details: in vivo

O=C(O)CCC(CP(=O)(O)O)C(=O)O (stereo not shown) [2-PNPA, 2-(phosphonomethyl)pentanedioic acid]
protection from cellular injury ([1]; 10 μM, tissue culture model of cerebral ischemia): 85% | protective effect ([1]; even one hour after the ischemia): significant | neuronal protection ([2]; rat stroke model (middle ear cerebral artery occlusion)): high degree of neuronal protection | tolerability ([2]; rat stroke model, at levels that produced a high degree of neuronal protection): well tolerated
